From PMC8364251 (Pharmacological Research, 2021)
“Also recorded” adds a separate entry of the source.

How the values were obtained:
[1] = system: SARS-CoV-2-pseudotyped lentivirus; type: cell-based; settings: concentrations up to 100 μM
RBD-ACE2 binding = RBD-ACE2 binding (Severe acute respiratory syndrome coronavirus 2, UniProt P0DTC2); experiment: ELISA ACE2:SARS-CoV-2 Spike inhibitor screening assay; settings: 25–200 μM compounds
human ACE2 = human ACE2 (Homo sapiens, UniProt Q9BYF1); type: binding
authentic SARS-CoV-2 = settings: cited from earlier work
HIV-1 protease = settings: cited from earlier work
Ebola virus = settings: cited from earlier work
SARS-CoV-2 [2] = experiment: Authentic SARS-CoV-2 CPE reduction assay in Vero E6 cells; type: cell-based
zika virus = settings: cited from earlier work
SARS-CoV-2 [3] = experiment: Plaque formation assay; settings: Vero E6
[4] = 200 and 300 mg/kg/day oral, 7 days
H1N1 influenza virus = settings: cited from earlier work
HEK293 = type: cell-based, human; settings: HEK293 cells
RBD = RBD (Severe acute respiratory syndrome coronavirus 2, UniProt P0DTC2); settings: streptavidin probes; cited from earlier work
Spike-RBD protein = Spike-RBD protein (Severe acute respiratory syndrome coronavirus 2, UniProt P0DTC2); type: binding, SARS-CoV-2; settings: BLI screening

Chain of human ACE2 (Q9BYF1 18-805): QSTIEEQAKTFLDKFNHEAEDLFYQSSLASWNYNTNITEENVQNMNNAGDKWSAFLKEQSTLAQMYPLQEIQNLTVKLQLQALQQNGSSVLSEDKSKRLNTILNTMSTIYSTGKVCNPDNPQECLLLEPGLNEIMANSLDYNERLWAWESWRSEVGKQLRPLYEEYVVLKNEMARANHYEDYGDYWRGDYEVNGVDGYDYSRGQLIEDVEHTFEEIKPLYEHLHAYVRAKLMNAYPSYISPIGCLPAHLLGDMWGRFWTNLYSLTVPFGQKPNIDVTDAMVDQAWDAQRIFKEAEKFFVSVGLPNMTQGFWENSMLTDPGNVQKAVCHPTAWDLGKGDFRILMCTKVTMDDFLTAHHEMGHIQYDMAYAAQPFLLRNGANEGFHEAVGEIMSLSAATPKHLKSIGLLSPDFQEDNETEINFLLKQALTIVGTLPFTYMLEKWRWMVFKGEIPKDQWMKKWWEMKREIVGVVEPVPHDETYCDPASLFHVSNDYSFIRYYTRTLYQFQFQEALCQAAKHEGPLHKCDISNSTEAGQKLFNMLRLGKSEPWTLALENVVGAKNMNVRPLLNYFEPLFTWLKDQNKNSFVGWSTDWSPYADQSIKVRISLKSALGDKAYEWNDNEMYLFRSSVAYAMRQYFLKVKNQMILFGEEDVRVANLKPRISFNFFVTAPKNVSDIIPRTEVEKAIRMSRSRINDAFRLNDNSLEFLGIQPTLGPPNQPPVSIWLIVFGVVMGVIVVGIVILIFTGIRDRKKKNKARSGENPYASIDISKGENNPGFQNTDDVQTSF

With `C=C[C@@](C)(/C=C/c1ccc(O)cc1)CCC=C(C)C` [Bkc, bakuchiol] the “inhibition of pseudovirus entry” value [1] was “effectively inhibited pseudovirus entry”, the “activity in ELISA (inhibition of RBD-ACE2 binding)” value (RBD-ACE2 binding) was “weakly active; also recorded: lacked activity” and the “binding to ACE2 in BLI” value (human ACE2) was “bound to ACE2 receptor”.

In the case of `CC(C)=CCc1cc2c(cc1O)O[C@H](c1ccc(O)cc1)CC2=O` [Bvc, bavachin], the “activity in ELISA (inhibition of RBD-ACE2 binding)” value (RBD-ACE2 binding) is listed as “high activities” and the “effect against authentic SARS-CoV-2” value (authentic SARS-CoV-2) is listed as “effective against authentic SARS-CoV-2”.

For `O=C(/C=C/c1ccc(O)c(O)c1)OC[C@H]1O[C@@H](OCCc2ccc(O)c(O)c2)[C@H](O)[C@@H](O)[C@@H]1O` [CalB, calceolarioside B], the “activity in ELISA (inhibition of RBD-ACE2 binding)” value (RBD-ACE2 binding) was “weakly active”.

In the case of `COc1ccc2cc1Oc1ccc(cc1)C[C@H]1c3c(cc4c(c3Oc3cc5c(cc3OC)CCN(C)[C@@H]5C2)OCO4)CCN1C` [Ceph, cepharanthine], the “activity in ELISA (inhibition of RBD-ACE2 binding)” value (RBD-ACE2 binding) is listed as “almost inactive” and the “effect against authentic SARS-CoV-2” value (authentic SARS-CoV-2) is listed as “effective against authentic SARS-CoV-2”.

In the case of `O=C(O[C@@H]1Cc2c(O)cc(O)cc2O[C@@H]1c1cc(O)c(O)c(O)c1)c1cc(O)c(O)c(O)c1` [EGCG, epigallocatechin gallate], the IC50 (HIV-1 protease) is listed as 50 to 100 µM, the EC50 (Ebola virus) is listed as 50 µM and the “inhibition of SARS-CoV-2-induced cytopathic effect” value (SARS-CoV-2 [2]) is listed as “effective”. For the same molecule, the EC50 (zika virus) was 21.4 µM, the “inhibition of plaque formation” value (SARS-CoV-2 [3]) was “effective” and the “inhibition of pseudovirus entry” value [1] was “effectively inhibited pseudovirus entry”. The body weights [4] was “no adverse effect”, the survival [4] was “no adverse effect” and the organ weights ([4]; liver, kidney, lung, spleen, thymus) was “no adverse effect”. The “activity in ELISA (inhibition of RBD-ACE2 binding)” value (RBD-ACE2 binding) was “high activities”, the EC50 (H1N1 influenza virus) was 22 to 28 µM and the “binding to ACE2 in BLI” value (human ACE2) was “bound to ACE2 receptor”.

In the case of `CC(C)=CCc1c(O)ccc(C(=O)/C=C/c2ccc(O)cc2)c1O` [Ibvc, isobavachalcone], the “inhibition of SARS-CoV-2-induced cytopathic effect” value (SARS-CoV-2 [2]) is reported as “effective”, the “inhibition of plaque formation” value (SARS-CoV-2 [3]) is reported as “effective” and the “inhibition of pseudovirus entry” value [1] is reported as “effectively inhibited pseudovirus entry”. The “activity in ELISA (inhibition of RBD-ACE2 binding)” value (RBD-ACE2 binding) was “weakly active; also recorded: lacked activity” and the “binding to ACE2 in BLI” value (human ACE2) was “bound to ACE2 receptor”.

For `COc1ccc(C[C@@H]2c3cc(Oc4cc(C[C@@H]5c6cc(O)c(OC)cc6CCN5C)ccc4O)c(OC)cc3CCN2C)cc1` [Isl, isoliensinine], the “inhibition of plaque formation” value (SARS-CoV-2 [3]) was “inhibited plaque formation”, the “activity in ELISA (inhibition of RBD-ACE2 binding)” value (RBD-ACE2 binding) was “high activities” and the cytotoxicity (HEK293) was “toxicity”. For the same molecule, the “effect against authentic SARS-CoV-2” value (authentic SARS-CoV-2) was “effective against authentic SARS-CoV-2”.

For `O=C(/C=C/c1ccc(O)c(O)c1/C=C/c1ccc(O)c(O)c1)O[C@H](Cc1ccc(O)c(O)c1)C(=O)O` [SalA, salvianolic acid A], the “inhibition of SARS-CoV-2-induced cytopathic effect” value (SARS-CoV-2 [2]) was “effective”, the “inhibition of plaque formation” value (SARS-CoV-2 [3]) was “effective” and the “inhibition of pseudovirus entry” value [1] was “weakly inhibited pseudovirus entry”. For the same molecule, the “activity in ELISA (inhibition of RBD-ACE2 binding)” value (RBD-ACE2 binding) was “high activities”.

For `O=C(/C=C/c1ccc(O)c2oc(-c3ccc(O)c(O)c3)cc12)O[C@H](Cc1ccc(O)c(O)c1)C(=O)O` [SalC, Salvianolic acid C], the “binding activity to RBD measured by BLI” value (RBD) is given as “weak binding activity to RBD” and the Kd (Spike-RBD protein) is given as 6.2 µM.

In the case of `C[C@H]1CC[C@@]2(OC1)O[C@H]1C[C@H]3[C@@H]4CC[C@@H]5C[C@@H](O[C@@H]6O[C@H](CO)[C@H](O)[C@H](O)[C@H]6O[C@@H]6O[C@H](CO)[C@@H](O)[C@H](O)[C@H]6O)CC[C@]5(C)[C@H]4CC[C@]3(C)[C@H]1[C@@H]2C` [TimA, timosaponin A III], the “activity in ELISA (inhibition of RBD-ACE2 binding)” value (RBD-ACE2 binding) is reported as “almost inactive”.

With bavachinin [Bvcn] the “activity in ELISA (inhibition of RBD-ACE2 binding)” value (RBD-ACE2 binding) was “high activities”.
